This assay deals with Ba/F3-TEL-FGFR2 (Homo sapiens, UniProt P21802+P41212). Put plainly: Cell viability (proliferation inhibition) of Ba/F3 cells, CellTiter Glo. To be noted: read-out: Ba/F3 cell FGFR2 (IC50 nM), 72 h. (In general: Cellular ATP, detected with luciferase, serves as a proxy for viable cell number.)
Chain of Ba/F3-TEL-FGFR2 (P21802 481-770 limits assumed, one chain of several): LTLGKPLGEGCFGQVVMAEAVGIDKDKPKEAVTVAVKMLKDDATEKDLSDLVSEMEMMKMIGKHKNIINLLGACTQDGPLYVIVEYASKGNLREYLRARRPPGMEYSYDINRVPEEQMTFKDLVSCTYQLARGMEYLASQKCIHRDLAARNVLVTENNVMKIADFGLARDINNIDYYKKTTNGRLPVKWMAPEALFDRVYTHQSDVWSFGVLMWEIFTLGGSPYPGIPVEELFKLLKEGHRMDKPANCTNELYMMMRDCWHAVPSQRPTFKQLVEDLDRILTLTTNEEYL

For the compound `C=C(C)C(=O)N1CC=C(c2c(-c3ccc(N=S4(=O)CCCCC4)cc3)c3c(N)ncnc3n2C)CC1` [Compound 3, 1-(4-(4-amino-7-methyl-5-(4-(1-oxotetrahydro-2H-1λ^6-thiopyran-1-imino)phenyl)-7H-pyrrolo[2,3-d]pyrimidin-6-yl)-3,6-dihydropyridine-1(2H)-yl)2-methylprop-2-enyl-1-one], the IC50 worked out at 700 nM.
With `C=C(C)C(=O)Nc1ccc(-c2c(-c3ccc(N=S4(=O)CCCCC4)c(OC)c3)c3c(N)ncnc3n2C)c(F)c1` [Compound 5, N-(4-(4-amino-5-(3-methoxy-4-(1-oxotetrahydro-2H-1λ^6-thiopyran-1-imino)phenyl)-7-methyl-7H-pyrrolo [2,3-d]pyrimidin-6-yl)-3-fluorophenyl) methacrylamide], the IC50 was found to be 29.3 nM.
The same measure for `C=C(C)C(=O)Nc1ccc(-c2c(-c3ccc(N=S4(=O)CCC(F)(F)CC4)cc3)c3c(N)ncnc3n2C)c(F)c1` [Compound 6, N-(4-(4-amino-5-(4-(4,4-difluoro-1-oxotetrahydro-2H-λ^6-thiopyran-1-imino)phenyl) -7-methyl-7H-pyrrolo [2,3-d]pyrimidin-6-yl) -3-fluorophenyl) methacrylamide]: 9.3 nM.
The same measure for `C=C(C)C(=O)Nc1ccc(-c2c(-c3ccc(N=S4(=O)CC(OC)(OC)C4)c(F)c3)c3c(N)ncnc3n2C)cc1` [Compound 10]: 107 nM; for `C=C(C)C(=O)Nc1ccc(-c2c(-c3ccc(N=S4(=O)CC5(COC5)C4)c(F)c3)c3c(N)ncnc3n2C)cc1` [Compound 11]: 172 nM; for `C=C(C)C(=O)Nc1ccc(F)c(-c2c(-c3ccc(N=S4(=O)CCCCC4)c(F)c3)c3c(N)ncnc3n2C)c1` [Compound 12, N-(3-(4-amino-5-(3-fluoro-4-((1-oxotetrahydro-2H-1 λ^6-thiopyran-1-ylidene)amino)phenyl) -7-methyl-7H-pyrrolo [2,3-d]pyrimidin-6-yl) -4-fluorophenyl) methacrylamide]: 276 nM.
On to `C=CC(=O)Nc1ccc(-c2c(-c3ccc(N=S4(=O)CCCCC4)c(F)c3)c3c(N)ncnc3n2C)cc1` [Compound 13, N-(4-(4-amino-5-(3-fluoro-4-((1-oxotetrahydro-2H-1 λ^6-thiopyran-1-ylidene)amino)phenyl) -7-methyl-7H-pyrrolo [2,3-d]pyrimidin-6-yl)phenyl) acrylamide], for which the IC50 turned out to be 0.6 nM.
The value for `C=C(C)C(=O)Nc1ccc(-c2c(-c3ccc(N=S4(=O)CCCCC4)c(F)c3)c3c(N)ncnc3n2C)c(OC)c1` [Compound 14, N-(4-(4-amino-5-(3-fluoro-4-((1-oxotetrahydro-2H-1 λ^6-thiopyran-1-ylidene)amino)phenyl)-7-methyl-7H-pyrrolo[2,3-d]pyrimidin-6-yl)-3-methoxyphenyl) methacrylamide] was 9.9 nM.
Regarding `C/C=C/C(=O)Nc1ccc(-c2c(-c3ccc(N=S4(=O)CCCCC4)c(F)c3)c3c(N)ncnc3n2C)cc1` [Compound 15, (E)-N-(4-(4-amino-5-(3-fluoro-4-((1-oxotetrahydro-2H-1λ^6-thiopyran-1-ylidene)amino)phenyl)-7-methyl-7H-pyrrolo [2,3-d]pyrimidin-6-yl) -phenyl)-2-butenamide], the IC50 came to 15.4 nM.
The value for `CN(C)C/C=C/C(=O)Nc1ccc(-c2c(-c3ccc(N=S4(=O)CCCCC4)c(F)c3)c3c(N)ncnc3n2C)cc1` [Compound 16, (E)-N-(4-(4-amino-5-(3-fluoro-4-((1-oxotetrahydro-2H-1 λ^6-thiopyran-1-ylidene)amino)phenyl) -7-methyl-7H-pyrrolo [2,3-d]pyrimidin-6-yl) - phenyl) -4-(dimethylamino) -2-butenamide] was 50.1 nM.
With `C=C(C)C(=O)Nc1ccc(-c2c(-c3ccc(N=S4(=O)CCCCC4)nc3)c3c(N)ncnc3n2C)cc1` [Compound 17, N-[4-(4-amino-7-methyl-5-(6-((1-oxotetrahydro-2H-1 λ^6-thiopyran-1-ylidene)amino)pyridin-3-yl)pyrrolo [2,3-d]pyrimidin-6-yl)phenyl) methacrylamide], the IC50 amounted to 4620 nM.
Turning to `C=C(COC)C(=O)Nc1ccc(-c2c(-c3ccc(N=S4(=O)CCCC4)c(F)c3)c3c(N)ncnc3n2C)cc1` [Compound 18, N-(4-(4-amino-5-(3-fluoro-4-((1-oxotetrahydro-1 λ^6-thiophene-1-ylidene)amino)phenyl) -7-methyl-7H-pyrrolo [2,3-d]pyrimidin-6-yl)phenyl) -2-(methoxymethyl) acrylamide], the IC50 was found to be 21.5 nM.
Consider `CC#CC1=Nc2ccc(-c3c(-c4ccc(N=S(C)(C)=O)c(F)c4)c4c(N)ncnc4n3C)cc2C(C)(C)O1` [Compound 19], for which the IC50 came to 2980 nM.
The value for `CC#CC(=O)Nc1ccc(-c2c(-c3ccc(N=S(C)(C)=O)c(F)c3)c3c(N)ncnc3n2C)cc1C(C)(C)O` [Compound 20] was 86.7 nM.
The same measure for `C=C(C)C(=O)Nc1ccc(-c2c(-c3ccc(N=S4(=O)CCCC4)c(F)c3)c3c(N)ncnc3n2C)c(C#N)c1` [Compound 25, N-(4-(4-amino-5-(3-fluoro-4-((1-oxotetrahydro-1 λ^6-thiophene-1-ylidene)amino)phenyl) -7-methyl-7H-pyrrolo [2,3-d]pyrimidin-6-yl) -3-cyanophenyl) methacrylamide]: 38.7 nM.
The value for `C=C(C)C(=O)Nc1ccc(-c2c(-c3cc(F)c(N=S4(=O)CCCC4)c(F)c3)c3c(N)ncnc3n2C)cc1` [Compound 27, N-(4-(4-amino-5-(3,5-difluoro-4-((1-oxotetrahydro-1 λ^6-thiophene-1-ylidene)amino)phenyl) -7-methyl-7H-pyrrolo [2,3-d]pyrimidin-6-yl)phenyl) methacrylamide] was 26 nM; that for `C=C(C)C(=O)Nc1ccc(-c2c(-c3ccc(N=S(=O)(N(C)C)C(F)(F)F)cc3)c3c(N)ncnc3n2C)cc1` (stereo not drawn) [Compound 28] was 0.9 nM.
With `C=C(C)C(=O)Nc1ccc(-c2c(-c3ccc(N=S4(=O)CCN(C)CC4)c(F)c3)c3c(N)ncnc3n2C)cc1` [Compound 30, N-(4-(4-amino-5-(3-fluoro-4-((4-methyl-1-oxo-1 λ^6-thiomorpholin-1-ylidene)amino)phenyl) -7-methyl-7H-pyrrolo [2,3-d]pyrimidin-6-yl)phenyl) methacrylamide], the IC50 worked out at 1440 nM.
`C=C(C)C(=O)Nc1ccc(-c2c(-c3ccc(N=S4(=O)CCCCC4)c(C)c3)c3c(N)ncnc3n2C)cc1` [Compound 34, N-(4-(4-amino-7-methyl-5-(3-methyl-4-((1-oxotetrahydro-2H-1λ^6-thiopyran-1-ylidene)amino)phenyl) -7H-pyrrolo [2,3-d]pyrimidin-6-yl)phenyl) methacrylamide]: the IC50 worked out at 17.9 nM.
The value for `C=C(C)C(=O)Nc1ccc(-c2c(-c3ncc(N=S4(=O)CCCCC4)cc3F)c3c(N)ncnc3n2C)cc1` [Compound 36, N-(4-(4-amino-5-(3-fluoro-5-((1-oxotetrahydro-2H-1 λ^6-thiopyran-1-ylidene)amino)pyridin-2-yl) -7-methyl-7H-pyrrole [2,3-d]pyrimidin-6-yl)phenyl) methacrylamide] was 53.5 nM; that for `C=C(C)C(=O)Nc1ccc(-c2c(-c3ccc(N=S4(=O)CCCCC4)c(F)c3)c3c(N)ncnc3n2C)cc1F` [Compound 37, N-(4-(4-amino-5-(3-fluoro-4-((1-oxotetrahydro-2H-1 λ^6-thiopyran-1-ylidene)amino)phenyl) -7-methyl-7H-pyrrolo [2,3-d]pyrimidin-6-yl) -2-fluorophenyl) methacrylamide] was 32 nM.
In the case of `C=C(C)C(=O)Nc1cc(-c2c(-c3ccc(N=S4(=O)CCCCC4)c(F)c3)c3c(N)ncnc3n2C)ccc1F` [Compound 38, N-(5-(4-amino-5-(3-fluoro-4-((1-oxotetrahydro-2H-1 λ^6-thiopyran-1-ylidene)amino)phenyl) -7-methyl-7H-pyrrolo [2,3-d]pyrimidin-6-yl) -2-fluorophenyl) methacrylamide], the IC50 was found to be 247 nM.
Consider `C=C(C)C(=O)Nc1ccc(F)c(-c2c(-c3ccc(N=S(=O)(N(C)C)C(F)(F)F)cc3)c3c(N)ncnc3n2C)c1` (stereo not drawn) [Compound 39], for which the IC50 came out at 10.2 nM.
The value for `C=C(C)C(=O)Nc1ccc(-c2c(-c3ccc(N=S4(=O)CCCCC4)c(Cl)c3)c3c(N)ncnc3n2C)cc1` [Compound 40, N-(4-(4-amino-5-(3-chloro-4-((1-oxotetrahydro-2H-1λ^6 - thiopyran-1-ylidene)amino)phenyl) -7-methyl-7H-pyrrolo [2,3-d]pyrimidin-6-yl)phenyl) methacrylamide] was 7.7 nM; that for `C=C(C)C(=O)Nc1ccc(-c2c(-c3ccc(N=S4(=O)CCOCC4)c(F)c3)c3c(N)ncnc3n2C)cc1` [Compound 41] was 124 nM.
The same measure for `C=C(C)C(=O)Nc1ccc(-c2c(-c3ccc(N=S(C)(C)=O)c(F)c3)c3c(N)ncnc3n2C)c(F)c1` [Compound 42]: 32.9 nM.
Consider `C=C(C)C(=O)Nc1ccc(-c2c(-c3ccc(N=S4(=O)CCCCC4)cc3F)c3c(N)ncnc3n2C)cc1` [Compound 43, N-(4-(4-amino-5-(2-fluoro-4-((1-oxotetrahydro-2H-1λ^6-thiopyran-1-ylidene)amino)phenyl) -7-methyl-7H-pyrrolo [2,3-d]pyrimidin-6-yl)phenyl) methacrylamide], for which the IC50 was 14.2 nM.
The value for `C=C(C)C(=O)Nc1ccc(-c2c(-c3ccc(N=S(C)(C)=O)c(F)c3)c3c(N)ncnc3n2C)cc1` [Compound 44] was 216 nM; that for `C=C(C)C(=O)Nc1ccc(-c2c(-c3ccc(N=S(C)(C)=O)cc3)c3c(N)ncnc3n2C)cc1` [Compound 45] was 83.1 nM; that for `C=C(C)C(=O)N(C)c1ccc(-c2c(-c3ccc(N=S4(=O)CCCCC4)c(F)c3)c3c(N)ncnc3n2C)cc1` [Compound 46, N-(4-(4-amino-5-(3-fluoro-4-((1-oxotetrahydro 2H-1λ^6 - thiopyran-1-ylidene)amino)phenyl) -7-methyl-7H-pyrrolo [2,3-d]pyrimidin-6-yl)phenyl) - N-methylmethacrylamide] was 162 nM.
